One experiment has as its system K562. The experiment can be described thus: Cytotoxicity against human K562 cells. The format is functional. The settings on record: read-out: LC50 (the source's name).
In the next experiment the target is T1, Sortase A (Staphylococcus aureus, UniProt Q9S446).
T1 sequence (Q9S446 whole entry): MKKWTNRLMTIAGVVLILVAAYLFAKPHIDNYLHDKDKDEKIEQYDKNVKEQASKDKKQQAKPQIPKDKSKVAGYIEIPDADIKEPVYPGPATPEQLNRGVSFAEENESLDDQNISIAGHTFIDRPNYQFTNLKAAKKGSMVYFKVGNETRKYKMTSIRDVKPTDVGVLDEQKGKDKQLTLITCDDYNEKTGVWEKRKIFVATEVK
Put plainly: Inhibition of recombinant Staphylococcus aureus ATCC 6538p sortase lacking the N-terminal membrane anchor domain expressed in Escherichia coli cells TOP10 using Dabcyl-QALPETGEE-Edans substrate measured after 1 hr by fluorescence S13 spectrophotometry.

The target in another experiment is Isocitrate lyase (Candida albicans, UniProt Q9P8Q7). Put plainly: Inhibition of Candida albicans isocitrate lyase.
Experiment [1] has as its target Sodium/potassium-transporting ATPase. The experiment can be described thus: Inhibition of human Na(+)/K(+) ATPase assessed as reduction in ouabain-sensitive and K(+)-dependent cleavage of fluorescent pseudosubstrate 3-O-methylfluorescein phosphate by fluorometric method. It is filed as protein-complex assay.
The test system of the next experiment is Staphylococcus aureus. Put plainly: Antimicrobial activity against Staphylococcus aureus ATCC 6538p. It is filed as functional.
The test system of a further experiment is Bacillus subtilis. Put plainly: Antimicrobial activity against Bacillus subtilis ATCC 6633. The format is functional.
The test system of another experiment is Micrococcus luteus. Put plainly: Antimicrobial activity against Micrococcus luteus IFO 12708. The format is functional.
A further experiment deals with Salmonella typhimurium. The experiment can be described thus: Antimicrobial activity against Salmonella Typhimurium ATCC 14028. The format is functional, Salmonella enterica subsp. enterica serovar Typhimurium. The settings on record: Salmonella enterica.
Another experiment concerns Proteus vulgaris. The experiment can be described thus: Antimicrobial activity against Proteus vulgaris ATCC 3851. The format is functional.
The test system of another experiment is Escherichia coli. Put plainly: Antimicrobial activity against Escherichia coli ATCC 35270. It is filed as functional.
Another experiment relates to Aspergillus fumigatus. The experiment can be described thus: Antimicrobial activity against Aspergillus fumigatus HIC 6094. The format is functional.
The subject of the next experiment is Trichophyton rubrum. Put plainly: Antimicrobial activity against Trichophyton rubrum IFO 9185. It is filed as functional.
Experiment [2] deals with Trichophyton mentagrophytes. Put plainly: Antimicrobial activity against Trichophyton mentagrophytes IFO 40996. It is filed as functional.
For another experiment, the system named is Candida albicans. Put plainly: Antimicrobial activity against Candida albicans ATCC 10231. The format is functional.

pIC50: −log10 of the molar value. In brackets after ≈: the same amount, converted by molar mass.

Sequence of Isocitrate lyase (Q9P8Q7 whole entry): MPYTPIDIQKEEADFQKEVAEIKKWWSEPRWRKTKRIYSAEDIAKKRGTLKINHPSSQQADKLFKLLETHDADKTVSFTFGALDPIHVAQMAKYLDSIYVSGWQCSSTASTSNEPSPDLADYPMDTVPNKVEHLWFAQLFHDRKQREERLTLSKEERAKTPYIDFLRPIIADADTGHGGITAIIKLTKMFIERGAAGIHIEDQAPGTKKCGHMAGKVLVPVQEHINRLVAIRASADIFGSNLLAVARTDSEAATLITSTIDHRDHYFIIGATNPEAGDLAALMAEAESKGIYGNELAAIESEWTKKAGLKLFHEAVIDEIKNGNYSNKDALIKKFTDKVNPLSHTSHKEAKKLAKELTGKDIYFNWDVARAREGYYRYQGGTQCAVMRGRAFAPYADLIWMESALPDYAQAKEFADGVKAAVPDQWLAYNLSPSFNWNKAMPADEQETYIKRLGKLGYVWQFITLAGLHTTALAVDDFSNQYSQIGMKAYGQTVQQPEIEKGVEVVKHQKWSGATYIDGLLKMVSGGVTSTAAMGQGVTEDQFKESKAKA

As for `CO[C@H]1C=C(CC[C@H]2/C(=C/OS(=O)(=O)[O-])CC[C@H]3[C@]2(C)CC[C@H]2C(C)(C)CCC[C@]32C)[C@@H](OC)O1.[Na+]`, the CC50 in the experiment on K562 was 49 µM. In addition, the pIC50 at Sortase A was under 3.70; at Isocitrate lyase, 4.06; in [1] it was 4.85. Besides, the MIC against Staphylococcus aureus, against Bacillus subtilis, against Micrococcus luteus, with Salmonella typhimurium, against Proteus vulgaris and against Escherichia coli was over 100 µg/mL in each case. Moreover, the MIC (against Aspergillus fumigatus; in the experiment with Trichophyton rubrum; in experiment [2]; against Candida albicans) was over 100 µg/mL each time.

For `CC1=CC[C@H]2C(C)(C)CCC[C@]2(C)[C@H]1C[C@@H](OS(=O)(=O)[O-])[C@H](C)CCC/C(C)=C\Cc1cc(O)ccc1O.[Na+]`, in the experiment with K562, the CC50 is over 200 µM. For the same molecule, the values for the pIC50 (at Sortase A; against Isocitrate lyase; in experiment [1]) were 4.00, 4.28 and 5.30, respectively. Moreover, the MIC against Staphylococcus aureus, against Bacillus subtilis, against Micrococcus luteus, in the experiment on Salmonella typhimurium, with Proteus vulgaris and in the experiment on Escherichia coli was over 100 µg/mL throughout. The MIC (in the experiment on Aspergillus fumigatus; in the experiment with Trichophyton rubrum; in [2]; against Candida albicans) was over 100 µg/mL each time.

Regarding `CO[C@@H]1C=C(CC[C@H]2/C(=C/OS(=O)(=O)[O-])CC[C@H]3[C@]2(C)CC[C@H]2C(C)(C)CCC[C@]32C)C(=O)O1.[Na+]`, the CC50 in the experiment with K562 amounted to 16 µM. The pIC50 at Sortase A was under 3.70; on Isocitrate lyase, 4.19; in experiment [1], 5.22. Besides, the minimum inhibitory concentration (MIC) against Staphylococcus aureus, against Bacillus subtilis, in the experiment with Micrococcus luteus, with Salmonella typhimurium, against Proteus vulgaris and in the experiment on Escherichia coli was over 100 µg/mL throughout. The MIC (with Aspergillus fumigatus; in the experiment on Trichophyton rubrum; in experiment [2]; against Candida albicans) was over 100 µg/mL throughout.

In the case of `CC1=CC[C@H]2C(C)(C)CCC[C@]2(C)[C@H]1C/C=C(\C)CCC/C(C)=C/Cc1cc(O)ccc1O`, the CC50 in the experiment on K562 came out at 8 µM. Also, the negative logarithm of the IC50 (pIC50) is under 3.70 at Sortase A, under 3.70 against Isocitrate lyase and 3.93 in [1]. The minimal inhibitory concentration (MIC) with Staphylococcus aureus, against Bacillus subtilis, against Micrococcus luteus, against Salmonella typhimurium, against Proteus vulgaris and with Escherichia coli was over 100 µg/mL in each case. The MIC (in the experiment with Aspergillus fumigatus; with Trichophyton rubrum; in [2]; in the experiment with Candida albicans) was over 100 µg/mL each time.

Regarding `CC1(C)S[C@@H]2[C@H](NC(=O)[C@H](N)c3ccccc3)C(=O)N2[C@H]1C(=O)O` [AMPICILLIN], the MIC turned out to be 1.56 µg/mL (≈ 4.46 µM) in the experiment on Staphylococcus aureus; 0.39 µg/mL (≈ 1.12 µM) against Bacillus subtilis; 0.39 µg/mL (≈ 1.12 µM) in the experiment with Micrococcus luteus; 0.39 µg/mL (≈ 1.12 µM) against Salmonella typhimurium; 0.39 µg/mL (≈ 1.12 µM) with Proteus vulgaris; 6.25 µg/mL (≈ 17.9 µM) with Escherichia coli.

`CC1(C)CCC[C@]2(C)[C@H]3CC/C(=C\OS(=O)(=O)[O-])[C@H](CCC4=CCNC4=O)[C@@]3(C)CC[C@@H]12.[Na+]`: the CC50 in the experiment with K562 was determined as 22 µM. Also, the results for the pIC50 (at Sortase A; against Isocitrate lyase; in experiment [1]) were under 3.70, 4.21 and 4.74, respectively. The MIC in the experiment with Staphylococcus aureus, in the experiment on Bacillus subtilis, against Micrococcus luteus, in the experiment on Salmonella typhimurium, in the experiment on Proteus vulgaris and in the experiment with Escherichia coli was over 100 µg/mL in each case. Moreover, the MIC (with Aspergillus fumigatus; in the experiment with Trichophyton rubrum; in [2]; in the experiment with Candida albicans) was over 100 µg/mL in each case.

As for `CO[C@@H]1O[C@H](OC)[C@](O)(CC[C@H]2/C(=C/OS(=O)(=O)[O-])CC[C@H]3[C@]2(C)CC[C@H]2C(C)(C)CCC[C@]32C)[C@H]1O.[Na+]`, the CC50 in the experiment with K562 stood at 15 µM. In addition, the pIC50 is under 3.70 at Sortase A, 4.12 at Isocitrate lyase and 5.22 in experiment [1]. The minimal inhibitory concentration (MIC) against Staphylococcus aureus, with Bacillus subtilis, against Micrococcus luteus, against Salmonella typhimurium, in the experiment with Proteus vulgaris and in the experiment on Escherichia coli was over 100 µg/mL in each case. Besides, the MIC (in the experiment with Aspergillus fumigatus; with Trichophyton rubrum; in experiment [2]; against Candida albicans) was over 100 µg/mL throughout.

Turning to `COc1cccc2c1C(=O)c1c(O)c3c(c(O)c1C2=O)C[C@@](O)(C(=O)CO)C[C@@H]3O[C@H]1C[C@H](N)[C@H](O)[C@H](C)O1` [DOXORUBICIN], in the experiment with K562, the CC50 was 13 µM.

For the molecule `C[C@@H]1[C@H](O)[C@@H](C)/C=C/C=C/C=C/C=C/C=C/C=C/C=C/[C@H](O[C@@H]2O[C@H](C)[C@@H](O)[C@H](N)[C@@H]2O)C[C@@H]2O[C@](O)(C[C@@H](O)C[C@@H](O)[C@H](O)CC[C@@H](O)C[C@@H](O)CC(=O)O[C@H]1C)C[C@H](O)[C@H]2C(=O)O` [AMPHOTERICIN B], the minimal inhibitory concentration (MIC) with Aspergillus fumigatus was 3.13 µg/mL (≈ 3.39 µM); in the experiment on Trichophyton rubrum it was 3.13 µg/mL (≈ 3.39 µM); in [2] it was 3.13 µg/mL (≈ 3.39 µM); against Candida albicans it was 0.78 µg/mL (≈ 0.844 µM).

At Isocitrate lyase, `O=C(O)CC[N+](=O)[O-]` had a pIC50 of 5.05.

On to `CO[C@H]1C=C(CC[C@H]2/C(=C/OS(=O)(=O)[O-])CC[C@H]3[C@]2(C)CC[C@H]2C(C)(C)CCC[C@]32C)C(=O)O1.[Na+]`, for which the CC50 in the experiment with K562 is 45 µM. In addition, the values for the pIC50 (at Sortase A; at Isocitrate lyase; in experiment [1]) were under 3.70, 3.78 and 4.77, respectively. Also, the MIC in the experiment on Staphylococcus aureus, in the experiment on Bacillus subtilis, in the experiment with Micrococcus luteus, against Salmonella typhimurium, with Proteus vulgaris and against Escherichia coli was over 100 µg/mL in each case. Besides, the MIC (in the experiment with Aspergillus fumigatus; in the experiment with Trichophyton rubrum; in experiment [2]; against Candida albicans) was over 100 µg/mL each time.

`CC1(C)CCC[C@]2(C)[C@H]3CC/C(=C\OS(=O)(=O)[O-])[C@H](CCc4ccoc4)[C@@]3(C)CC[C@@H]12.C[N+](C)=C(N)N` [SUVANINE]: the CC50 in the experiment with K562 is over 200 µM. The pIC50 at Sortase A is under 3.70; on Isocitrate lyase, 4.77; in [1], 5.10. Further, the MIC against Staphylococcus aureus was 100 µg/mL; against Bacillus subtilis, 1.56 µg/mL; with Micrococcus luteus, over 100 µg/mL; against Salmonella typhimurium, 50 µg/mL; in the experiment with Proteus vulgaris it was over 100 µg/mL; with Escherichia coli it was over 100 µg/mL. The MIC (with Aspergillus fumigatus; against Trichophyton rubrum; in [2]; in the experiment with Candida albicans) was over 100 µg/mL throughout.

With `CC1=CC[C@H]2C(C)(C)CCC[C@]2(C)[C@H]1C[C@@H](OS(=O)(=O)[O-])[C@H](C)CCC/C(C)=C/Cc1cc(O)ccc1O.[Na+]` [HALISULFATE 1], in the experiment on K562, the CC50 is over 200 µM. For the same molecule, the pIC50 on Sortase A is 4.44; on Isocitrate lyase, 4.72; in experiment [1] it was 5.52. Further, the MIC in the experiment on Staphylococcus aureus was 50 µg/mL; in the experiment with Bacillus subtilis, 3.13 µg/mL; in the experiment with Escherichia coli, over 100 µg/mL; against Aspergillus fumigatus, over 100 µg/mL; against Trichophyton rubrum, over 100 µg/mL; in experiment [2], over 100 µg/mL. This molecule returned a minimal inhibitory concentration (MIC) against Candida albicans of over 100 µg/mL.

Regarding `CC1=CC[C@H]2C(C)(C)CCC[C@]2(C)[C@H]1C/C=C(/C)CCC/C(C)=C/Cc1cc(O)ccc1O` [COSCINOQUINOL], the CC50 in the experiment with K562 was found to be 8 µM. In addition, the negative-log IC50 (pIC50) at Sortase A was under 3.70; on Isocitrate lyase, under 3.70; in experiment [1], 4.36. The MIC with Staphylococcus aureus is over 100 µg/mL; in the experiment with Bacillus subtilis it was 3.25 µg/mL (≈ 7.21 µM); with Micrococcus luteus, 25 µg/mL (≈ 55.5 µM); in the experiment with Salmonella typhimurium it was 25 µg/mL (≈ 55.5 µM); in the experiment with Proteus vulgaris, 6.25 µg/mL (≈ 13.9 µM); with Escherichia coli, over 100 µg/mL. For the same molecule, the MIC (with Aspergillus fumigatus; against Trichophyton rubrum; in experiment [2]; with Candida albicans) was over 100 µg/mL throughout.

Consider `CC1(C)CCC[C@]2(C)[C@H]3CC/C(=C\OS(=O)(=O)[O-])[C@H](CCC4=CC(=O)O[C@@H]4O)[C@@]3(C)CC[C@@H]12.[Na+]`, for which, in the experiment with K562, the CC50 amounted to 59 µM. The figures for the pIC50 (on Sortase A; in experiment [1]) were under 3.70 and 5.30, respectively. The MIC with Staphylococcus aureus, in the experiment with Bacillus subtilis, with Micrococcus luteus, in the experiment on Salmonella typhimurium, against Proteus vulgaris and against Escherichia coli was over 100 µg/mL throughout. Also, the MIC (against Aspergillus fumigatus; with Trichophyton rubrum; in experiment [2]; against Candida albicans) was over 100 µg/mL throughout.

For the molecule `C=C1CC[C@H]2C(C)(C)CCC[C@]2(C)[C@H]1C[C@@H](OS(=O)(=O)[O-])[C@H](C)CCC/C(C)=C/Cc1cc(O)ccc1O.[Na+]`, in the experiment with K562, the CC50 is over 200 µM. Besides, the negative-log IC50 (pIC50) on Sortase A is 4.01; against Isocitrate lyase, 4.35; in experiment [1] it was 5.40. Besides, the MIC (against Escherichia coli; against Aspergillus fumigatus; against Trichophyton rubrum; in experiment [2]; against Candida albicans) was over 100 µg/mL each time.

As a reminder, the pIC50 is the negative decadic logarithm of the IC50, by convention in mol/L. Broadly, the MIC is the smallest concentration in the dilution series that meets the test's criterion for growth inhibition.
